Data on 24 compounds can be found in patent publication US11077100B2, “Tetrahydroquinoline derivatives as P2X7 receptor antagonists” (RaQualia Pharma Inc., priority 2017, dated 2021).

One experiment concerns the target human P2X7 (Homo sapiens (Human), UniProt Q99572). Put plainly: Human P2X7 functional assay (Ca2+ influx, Fluo-4, FDSS). Conditions: antagonistic activity with respect to the human P2X7 receptor; BzATP final concentration 80 microM. It is filed as cell-based. The essentials:
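HEK293 cells stably expressing C-terminally FLAG-tagged human P2X7, loaded with Fluo-4. Compounds were preincubated for 10 min at room temperature, then 80 μM BzATP (final) was added and Ca2+ fluorescence read at 540 nm (480 nm excitation) by FDSS. IC50 values come from 7-point curves, duplicate wells.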

In a further experiment the target is rat P2X7 (Rattus norvegicus (Rat), UniProt Q64663). Put plainly: Rat P2X7 functional assay (Ca2+ influx, Fluo-4, FDSS). In kind it is cell-based. Particulars: HEK293 cells stably expressing rat P2X7; BzATP final 10 microM; 7-point dose-response; read-out: Antagonistic activities with respect to the rat P2X7 receptor (IC50). As for the experimental part:
Rat P2X7 Functional Assay
The functional activity of compounds was determined by measuring changes in intracellular calcium concentration using a Ca^2+-sensitive fluorescent dye, Fluo-4 (Molecular Probes). The changes in fluorescent signal were monitored by the cell imaging technology by Hamamatsu Photonics's Functional Drug Screening System (FDSS). Increases in intracellular Ca^2+ concentration were readily detected upon activation with BzATP.
HEK293 cells stably expressing rat P2X7 (GenBank accession number NM_019256) were grown in Corning CellBIND cell culture flasks, in a 5% CO2 humidified incubator to about 80% confluence. Media composition consisted of Dulbecco's Modified Eagle Medium (high glucose), 10% fetal bovine serum ([…]), 100 units/[…] Penicillin, 100 microg/mL Streptomycin and 250 microg/mL Geneticine.
1. […] Plate-out HEK293-rat P2X7 cells (40 microL medium containing 5,000 cells per well) into poly-D-lysine coated 384-well plates (BD Falcon) at 24 h prior to assay.
2. Incubate at 37° C. in 5% CO2.
3. Incubate the plate at 37° C. in 5% CO2 for 1 h.
5. Test compounds were prepared at 100× the test concentration in DMSO by serial dilution with Biomek-FX liquid handling instrument. 33× diluted compound solutions in assay buffer were prepared in intermediate compound plate with Biomek-NX liquid handling instrument. A further 3× dilution occurred in below steps 6 and 7.
6. Add 20 microL of 33× diluted compound solutions into each well and leave the plate for 10 min under the dark at room temperature.
7. Measure activity by FDSS as follows: • Set the assay plate on the stacker of FDSS. • Start the detection of fluorescence intensity at 540 nm by 480 nm exicitation. • After 30 seconds, add 20 microL of assay buffer containing 30 microM BzATP (final 10 microM).
IC50 values for compounds of the present invention were determined from 7-point dose-response studies. Curves were generated using the average of duplicate wells for each data point. Finally, the IC50 values are calculated with the best-fit dose curve determined by XLfit (ID Business Solutions Ltd.).

Chain of human P2X7 (Q99572 whole entry): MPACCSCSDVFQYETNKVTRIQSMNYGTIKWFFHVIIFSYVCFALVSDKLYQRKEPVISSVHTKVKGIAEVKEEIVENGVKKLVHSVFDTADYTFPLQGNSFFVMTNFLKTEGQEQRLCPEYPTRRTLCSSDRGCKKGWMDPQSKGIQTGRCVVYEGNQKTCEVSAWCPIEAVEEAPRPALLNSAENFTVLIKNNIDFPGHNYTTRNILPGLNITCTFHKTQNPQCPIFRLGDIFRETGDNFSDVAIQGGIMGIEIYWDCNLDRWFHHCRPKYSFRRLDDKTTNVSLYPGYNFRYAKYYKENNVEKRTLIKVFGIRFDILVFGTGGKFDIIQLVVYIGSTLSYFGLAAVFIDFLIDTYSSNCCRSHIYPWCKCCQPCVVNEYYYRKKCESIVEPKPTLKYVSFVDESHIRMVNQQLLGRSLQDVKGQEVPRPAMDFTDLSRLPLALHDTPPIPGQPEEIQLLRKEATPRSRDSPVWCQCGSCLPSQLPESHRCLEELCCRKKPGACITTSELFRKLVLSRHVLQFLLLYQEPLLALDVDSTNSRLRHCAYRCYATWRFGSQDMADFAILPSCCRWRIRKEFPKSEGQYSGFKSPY
Chain of rat P2X7 (Q64663 whole entry): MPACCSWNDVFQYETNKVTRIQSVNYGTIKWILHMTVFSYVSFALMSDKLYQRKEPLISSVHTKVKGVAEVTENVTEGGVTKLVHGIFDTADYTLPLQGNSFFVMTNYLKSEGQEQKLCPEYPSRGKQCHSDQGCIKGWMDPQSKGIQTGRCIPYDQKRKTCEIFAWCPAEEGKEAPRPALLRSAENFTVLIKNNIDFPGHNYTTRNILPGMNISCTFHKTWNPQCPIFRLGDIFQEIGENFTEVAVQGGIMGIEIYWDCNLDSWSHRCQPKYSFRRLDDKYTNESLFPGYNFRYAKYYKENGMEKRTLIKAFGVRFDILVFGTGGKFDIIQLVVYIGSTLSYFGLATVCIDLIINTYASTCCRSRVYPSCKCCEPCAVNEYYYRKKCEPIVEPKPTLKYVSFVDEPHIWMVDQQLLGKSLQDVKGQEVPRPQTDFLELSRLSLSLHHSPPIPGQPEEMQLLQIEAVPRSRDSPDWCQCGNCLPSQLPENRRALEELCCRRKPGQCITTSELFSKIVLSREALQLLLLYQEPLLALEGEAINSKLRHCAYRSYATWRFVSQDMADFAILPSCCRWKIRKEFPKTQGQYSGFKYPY

For `O=C(NCc1ccc(F)cc1Cl)[C@]1(F)CC[C@@](O)(CN2CC(O)C2)c2ncccc21` (relative stereo) [Example 52, (5S*,8R*)-N-(2-chloro-4-fluorobenzyl)-5-fluoro-8-hy-droxy-8-((3-hydroxy-azetidin-1-yl)methyl)-5,6,7,8-tetrahydro-quinoline-5-carboxamide], the IC50 on human P2X7 is less than 0.05 µM; at rat P2X7 it was less than 1 µM.
Consider `COC1CN(C[C@]2(O)CC[C@@](F)(C(=O)NCc3ccc(F)cc3Cl)c3cccnc32)C1` (relative stereo) [Example 53, (5S*,8R*)-N-(2-chloro-4-fluorobenzyl)-5-fluoro-8-hydroxy-8-((3-methoxy-azetidin-1-yl)methyl)-5,6,7,8-tetrahydro-quinoline-5-carboxamide], for which the figures for the IC50 against human P2X7 and at rat P2X7 were less than 0.05 µM and less than 1 µM, respectively.
Take `CC1(O)CN(C[C@]2(O)CC[C@@](F)(C(=O)NCc3ccc(F)cc3Cl)c3cccnc32)C1` (relative stereo) [Example 54, (5S*,8R*)-N-(2-chloro-4-fluorobenzyl)-5-fluoro-8-hydroxy-8-((3-hydroxy-3-methylazetidin-1-yl)methyl)-5,6,7,8-tetra-hydroquinoline-5-carboxamide]: the IC50 was less than 0.05 µM on human P2X7 and less than 1 µM on rat P2X7.
As to `COC1(C)CN(C[C@]2(O)CC[C@@](F)(C(=O)NCc3ccc(F)cc3Cl)c3cccnc32)C1` (relative stereo) [Example 55, (5S*,8R*)-N-(2-chloro-4-fluorobenzyl)-5-fluoro-8-hydroxy-8-((3-methoxy-3-methylazetidin-1-yl)methyl)-5,6,7,8-tetra-hydroquinoline-5-carboxamide], the IC50 at human P2X7 was less than 0.05 µM; on rat P2X7, less than 1 µM.
On to `O=C(NCc1ccc(F)cc1Cl)[C@]1(F)CC[C@@](O)(CNCCO)c2ncccc21` (relative stereo) [Example 56, (5S*,8R*)-N-(2-chloro-4-fluorobenzyl)-5-fluoro-8-hydroxy-8-(((2-hydroxy-ethyl)amino)methyl)-5,6,7,8-tetrahydro-quinoline-5-carboxamide], for which the IC50 at human P2X7 is less than 0.05 µM; on rat P2X7 it was less than 1 µM.
The corresponding values for `CN(CCO)C[C@]1(O)CC[C@@](F)(C(=O)NCc2ccc(F)cc2Cl)c2cccnc21` (relative stereo) [Example 57, (5S*,8R*)-N-(2-chloro-4-fluorobenzyl)-5-fluoro-8-hydroxy-8-(((2-hydroxyethyl)(meth-yl)amino)methyl)-5,6,7,8-tetrahydroquinoline-5-carboxamide] are less than 0.05 µM and less than 1 µM.
The corresponding values for `N[C@]1(CO)CC[C@@](F)(C(=O)NCc2ccc(Cl)cc2Cl)c2cccnc21` (relative stereo) [Example 59, (5S*,8R*)-8-amino-N-(2,4-dichloro-benzyl)-5-fluoro-8-(hydroxymethyl)-5,6,7,8-tetrahydroquinoline-5-carboxamide] are less than 0.05 µM and less than 1 µM.
For the compound `N[C@@]1(CO)CC[C@@](F)(C(=O)NCc2ccc(Cl)cc2Cl)c2cccnc21` (relative stereo) [Example 60, (5S*,8S*)-8-amino-N-(2,4-dichloro-benzyl)-5-fluoro-8-(hydroxymethyl)-5,6,7,8-tetrahydroquinoline-5-carboxamide], the IC50 on human P2X7 was 0.101 to 0.3 µM; on rat P2X7, less than 1 µM.
For the compound `O=C1COC[C@]2(CC[C@@](F)(C(=O)NCc3ccc(Cl)cc3Cl)c3cccnc32)N1` (relative stereo) [Example 61, (3R*,5′S*)-N-(2,4-dichlorobenzyl)-5′-fluoro-5-oxo-6′,7′-dihydro-5′H-spiro[morpholine-3,8′-quinoline]-5′-carboxamide], the IC50 against human P2X7 was less than 0.05 µM; on rat P2X7 it was less than 1 µM.
For the compound `O=C1COC[C@@]2(CC[C@@](F)(C(=O)NCc3ccc(Cl)cc3Cl)c3cccnc32)N1` (relative stereo) [Example 62, (3S*,5′S*)-N-(2,4-dichlorobenzyl)-5′-fluoro-5-oxo-6′,7′-dihydro-5′H-spiro[morpholine-3,8′-quinoline]-5′-carboxamide], the IC50 was 0.101 to 0.3 µM at human P2X7 and less than 1 µM on rat P2X7.
For `O=C(NCc1cccc(Cl)c1Cl)[C@]1(F)CC[C@@H](O)c2ncccc21` (stereo in doubt) [Example 121, (5S,8RS)-N-(2,3-dichlorobenzyl)-5-fluoro-8-hydroxy-5,6,7,8-tetrahydroquinoline-5-carboxamide], the IC50 at human P2X7 is 0.05 to 0.1 µM; on rat P2X7, less than 1 µM.
In the case of `Cc1cc(Cl)cc(Cl)c1CNC(=O)C1CCC(=O)c2ncccc21` (stereo not drawn) [Example 1, N-(2,4-dichloro-6-methyl-benzyl)-8-oxo-5,6,7,8-tetrahydroquinoline-5-carboxamide], the IC50 on human P2X7 was less than 0.05 µM; on rat P2X7, less than 1 µM.
As for `O=C1CCC(C(=O)NCc2cccc(C(F)(F)F)c2Cl)c2cccnc21` (stereo not drawn) [Example 2, N-(2-chloro-3-(trifluoromethyl)benzyl)-8-oxo-5,6,7,8-tetrahydroquinoline-5-carboxamide], the IC50 against human P2X7 was less than 0.05 µM; on rat P2X7, less than 1 µM.
Regarding `O=C1CCC(C(=O)NCc2cccc(Cl)c2Cl)c2cccnc21` (stereo not drawn) [Example 3, N-(2,3-dichlorobenzyl)-8-oxo-5,6,7,8-tetrahydro-quinoline-5-carboxamide], the half-inhibitory concentration (IC50) on human P2X7 is 0.301 to 1 µM; on rat P2X7, less than 1 µM.
Regarding `Cc1cc(Cl)cc(Cl)c1CNC(=O)C1CCC(O)c2ncccc21` (stereo not drawn) [Example 6, N-(2,4-dichloro-6-methyl-benzyl)-8-hydroxy-5,6,7,8-tetrahydroquinoline-5-carboxamide], the figures for the IC50 against human P2X7 and on rat P2X7 were less than 0.05 µM and less than 1 µM, respectively.
On to `O=C(NCc1cccc(C(F)(F)F)c1Cl)C1CCC(O)c2ncccc21` (stereo not drawn) [Example 7, N-(2-chloro-3-(trifluoromethyl)benzyl)-8-hydroxy-5,6,7,8-tetrahydro-quinoline-5-carboxamide], for which the IC50 against human P2X7 is less than 0.05 µM; at rat P2X7, less than 1 µM.
Turning to `O=C(NCc1cccc(Cl)c1Cl)C1CCC(O)c2ncccc21` (stereo not drawn) [Example 8, N-(2,3-dichlorobenzyl)-8-hydroxy-5,6,7,8-tetra hydroquinoline-5-carboxamide], the IC50 at human P2X7 is less than 0.05 µM; at rat P2X7 it was less than 1 µM.
Take `COCc1cc(Cl)cc(Cl)c1CNC(=O)C1CCC(O)c2ncccc21` (stereo not drawn) [Example 10, N-(2,4-dichloro-6-(methoxy-methyl)benzyl)-8-hydroxy-5,6,7,8-tetrahydro-quinoline-5-carboxamide]: the IC50 at human P2X7 is less than 0.05 µM; at rat P2X7, less than 1 µM.
Turning to `C=C1CC(C(=O)NCc2c(C)cc(Cl)cc2Cl)c2cccnc21` (stereo not drawn) [Example 11, N-(2,4-dichloro-6-methyl-benzyl)-7-methylene-6,7-dihydro-5H-cyclopenta [b]pyridine-5-carboxamide], the figures for the IC50 at human P2X7 and at rat P2X7 were less than 0.05 µM and less than 1 µM, respectively.
Regarding `Cc1cc(Cl)cc(Cl)c1CNC(=O)C1(F)CCC(=O)c2ncccc21` (stereo not drawn) [Example 12, N-(2,4-dichloro-6-methylbenzyl)-5-fluoro-8-oxo-5,6,7,8-tetrahydroquinoline-5-carboxamide], the IC50 on human P2X7 was less than 0.05 µM; at rat P2X7, less than 1 µM.
As for `O=C1CCC(F)(C(=O)NCc2cccc(C(F)(F)F)c2Cl)c2cccnc21` (stereo not drawn) [Example 13, N-(2-chloro-3-(trifluoromethyl)benzyl)-5-fluoro-8-oxo-5,6,7,8-tetrahydro-quinoline-5-carboxamide], the IC50 against human P2X7 was less than 0.05 µM; on rat P2X7, less than 1 µM.
The corresponding values for `O=C1CCC(F)(C(=O)NCc2c(Cl)cc(Cl)cc2CO)c2cccnc21` (stereo not drawn) [Example 14, N-(2,4-dichloro-6-(hydroxymethyl)benzyl)-5-fluoro-8-oxo-5,6,7,8-tetrahydro-quinoline-5-carboxamide] are less than 0.05 µM and less than 1 µM.
For `Cc1cc(Cl)cc(Cl)c1CNC(=O)C1CC(=O)c2ncccc21` (stereo not drawn) [Example 16, N-(2,4-dichloro-6-methylbenzyl)-7-oxo-6,7-dihydro-5H-cyclopenta[b]pyridine-5-carboxamide], the IC50 was less than 0.05 µM against human P2X7 and less than 1 µM on rat P2X7.
The corresponding values for `Cc1cc(Cl)cc(Cl)c1CNC(=O)C1(F)CCC(O)c2ncccc21` (stereo not drawn) [Example 18, N-(2,4-dichloro-6-methyl-benzyl)-5-fluoro-8-hydroxy-5,6,7,8-tetrahydroquinoline-5-carboxamide] are less than 0.05 µM and less than 1 µM.
